# Test results as given in patent US11053212B2, “Benzimidazole derivatives as bromodomain inhibitors” (GLAXOSMITHKLINE INTELLECTUAL PROPERTY DEVELOPMENT LIMITED, priority 2015, dated 2021).
# Counter-ions that a name gives are not always drawn.
# Target: T1, recombinant human CES1 (Homo sapiens, UniProt P23141)
# T1 construct: Recombinant human CES1 (Gly18-Glu563, bearing a polyhistidine tag at the C-terminus); polyhistidine (C); purchased Novoprotein, Summit, N.J., USA C450; host or cells: human cells
# T1 sequence (P23141 18-563): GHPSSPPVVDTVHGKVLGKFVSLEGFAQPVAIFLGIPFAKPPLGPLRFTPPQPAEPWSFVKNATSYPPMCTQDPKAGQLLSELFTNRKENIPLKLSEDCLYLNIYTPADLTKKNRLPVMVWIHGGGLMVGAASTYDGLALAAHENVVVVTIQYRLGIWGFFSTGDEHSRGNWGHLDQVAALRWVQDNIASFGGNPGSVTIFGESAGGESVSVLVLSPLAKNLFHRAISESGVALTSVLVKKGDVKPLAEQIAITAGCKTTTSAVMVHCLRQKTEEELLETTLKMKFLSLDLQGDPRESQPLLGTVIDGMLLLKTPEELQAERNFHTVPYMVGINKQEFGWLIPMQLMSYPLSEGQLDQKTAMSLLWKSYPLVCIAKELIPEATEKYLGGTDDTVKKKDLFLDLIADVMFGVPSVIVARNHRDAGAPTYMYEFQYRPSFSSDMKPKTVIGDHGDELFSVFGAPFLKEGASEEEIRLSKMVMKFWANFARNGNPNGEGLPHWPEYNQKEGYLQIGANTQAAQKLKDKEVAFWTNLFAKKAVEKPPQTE
# Test: Hydrolysis by hCES-1 (HPLC assay)
# Assay type: in vitro ADME
# Conditions: 50 μM test compound, 50 nM CES1, 20° C., pH 7.5
# Procedure: Hydrolysis of ESM-containing BET inhibitors by carboxylesterase 1 (CES1) is one aspect of delivering a targeted molecule. Rates of hydrolysis of certain compounds of the invention by recombinant human CES1 were determined using an HPLC assay. Recombinant human CES1 (Gly18-Glu563, bearing a polyhistidine tag at the C-terminus) expressed in human cells and purified to homogeneity was obtained from Novoprotein, Summit, N.J., USA (catalogue number C450). Reactions were run in 384 well plates at 20° C. in a buffer of 50 mM sodium phosphate pH 7.5/100 mM NaCl.
# Assays used a fixed concentration of test compound (50 μM) and CES1 (50 nM) and a time course of the reaction was obtained by stopping samples at increasing times by addition of formic acid to lower the pH. Stopped samples were subsequently analysed by HPLC to resolve product acid from unhydrolysed ester, using a 50×2 mm C18 5 μM reversed-phase column (Phenomenex Gemini) at a flow rate of 1 ml/min using a gradient of acetonitrile in water, containing 0.1% formic acid. Chromatography was monitored using absorbance at 300 nm wavelength. The % of product formed was determined using integrated peak areas and used to determine the initial rate of the reaction. The specific activity of the CES1 against each test compound under these conditions (in units of μM/min/μM) was obtained by dividing the initial rate of the reaction by the CES1 concentration.
row,SMILES,rate of hydrolysis (specific activity of CES1 against test compound)
1,"Cc1cc(-c2nc3cc(CN[C@H](C(=O)OCC(C)C)[C@@H](C)O)ccc3n2C[C@H]2CN(C)CCO2)cn(C)c1=O (single isomer, unassigned) [Example 162a]",no detectable level of hydrolysis
2,"Cc1cc(-c2nc3cc(CN[C@H](C(=O)OC4CCCC4)C(C)C)ccc3n2CC2CCOCC2)c[nH]c1=O [Example 16, (S)-cyclopentyl 3-methyl-2-(((2-(5-methyl-6-oxo-1,6-dihydropyridin-3-yl)-1-((tetrahydro-2H-pyran-4-yl)methyl)-1-benzo[d]imidazol-5-yl)methyl)amino)butanoate]",no detectable level of hydrolysis
3,"Cc1cc(-c2nc3cc(CN[C@H](C(=O)OC4CCCC4)[C@@H](C)O)ccc3n2CC2CCOCC2)c[nH]c1=O [Example 138, (2S,3R)-cyclopentyl 3-hydroxy-2-(((2-(5-methyl-6-oxo-1,6-dihydropyridin-3-yl)-1-((tetrahydro-2H-pyran-4-yl)methyl)-1H-benzo[d]imidazol-5-yl)methyl)amino)butanoate]",no detectable level of hydrolysis
4,"Cc1cc(-c2nc3cc(CN[C@H](C(=O)OC4CCCC4)[C@@H](C)O)ccc3n2CC2CCOCC2)cn(C)c1=O [Example 156, (2S,3R)-cyclopentyl 2-(((2-(1,5-dimethyl-6-oxo-1,6-dihydropyridin-3-yl)-1-((tetrahydro-2H-pyran-4-yl)methyl)-1H-benzo[d]imidazol-5-yl)methyl)amino)-3-hydroxybutanoate]",no detectable level of hydrolysis
5,"Cc1cc(-c2nc3cc(CN[C@H](C(=O)OC(C)(C)C)[C@@H](C)O)ccc3n2CC2CCOCC2)cn(C)c1=O [Example 212, (2S,3R)-tert-butyl 2-(((2-(1,5-dimethyl-6-oxo-1,6-dihydropyridin-3-yl)-1-((tetrahydro-2H-pyran-4-yl)methyl)-1H-benzo[d]imidazol-5-yl)methyl)amino)-3-hydroxybutanoate]",no detectable level of hydrolysis
6,Cc1cc(-c2nc3cc(CN[C@H](C(=O)O[C@H]4CCOC4)[C@@H](C)O)ccc3n2CC2CCOCC2)cn(C)c1=O [Example 214],no detectable level of hydrolysis
7,COC[C@H](C)n1c(-c2cc(C)c(=O)n(C)c2)nc2cc(CN[C@H](C(=O)O[C@H]3CCOC3)[C@@H](C)O)ccc21 [Example 216],no detectable level of hydrolysis

# Target: T2, BRD4 BD2 (Homo sapiens, UniProt O60885, Y97A)
# T2 construct: BRD4 (1-477) (Y97A) and (Y390A); made in house; host or cells: E. coli (pET15b vector)
# Test: TR-FRET binding assay, BRD4 BD2 (mutant protein)
# Conditions: 10 nM mutated bromodomain protein, Alexa Fluor647 ligand at Kd, read-out: mean pIC50 in the BRD4 BD2 assay (converted)
# Procedure: Biological Data Time Resolved Fluorescence Resonance Energy Transfer (TR-FRET) Assay
# Binding was assessed using a time resolved fluorescent resonance energy transfer binding assay. This utilises a 6 His purification tag at the N-terminal of the proteins as an epitope for an anti-6 His antibody labeled with Europium chelate (PerkinElmer AD0111) allowing binding of the Europium to the proteins which acts as the donor fluorophore.
# In the absence of a competing compound, excitation of the Europium causes the donor to emit at λ618 nm which excites the Alexa labelled bromodomain binding compound leading to an increased energy transfer that is measurable at λ647 nM. In the presence of a sufficient concentration of a compound that can bind these proteins, the interaction is disrupted leading to a quantifiable drop in fluorescent resonance energy transfer.
# The binding of compounds of the invention to Bromodomains BRD2, BRD3, BRD4 and BRDT was assessed using mutated proteins to detect differential binding to either Binding Domain 1 (BD1) or Binding Domain 2 (BD2) on the bromodomain. […] Therefore in the final assay conditions, binding of the fluoroligand to the mutated domain cannot be detected and subsequently the assay is suitable to determine the binding of compounds to the single non-mutated bromodomain.
# Recombinant Human Bromodomains [(BRD2 (1-473) (Y113A) and (Y386A), BRD3 (1-435) (Y73A) and (Y348A) BRD4 (1-477) (Y97A) and (Y390A) and BRDT (1-397) (Y66A) and (Y309A)] were expressed in E coli cells (in pET15b vector for BRD2/3/4 and in pET28a vector for BRDT) with a 6-His tag at the N-terminal. The His-tagged Bromodomain pellet was resuspended in 50 mM HEPES (pH7.5), 300 mM NaCl, 10 mM imidazole & 1 μl/ml protease inhibitor cocktail and extracted from the E coli cells using sonication and purified using a nickel sepharose high performance column, the proteins were washed and then eluted with a linear gradient of 0-500 mM imidazole with buffer 50 mM HEPES (pH7.5), 150 mM NaCl, 500 mM imidazole, over 20 column volumes. Final purification was completed by Superdex 200 prep grade size exclusion column. Purified protein was stored at −80° C. in 20 mM HEPES pH 7.5 and 100 mM NaCl.
# All assay components were dissolved in buffer composition of 50 mM HEPES pH7.4, 50 mM NaCl, 5% Glycerol, 1 mM DTT and 1 mM CHAPS. The final concentration of bromodomain proteins were 10 nM and the Alexa Fluor647 ligand was at Kd. These components were premixed and 5 μl of this reaction mixture was added to all wells containing 50 nl of various concentrations of test compound or DMSO vehicle (0.5% DMSO final) in Greiner 384 well black low volume microtitre plates and incubated in dark for 30 minutes at rt. […] of detection mixture containing 1.5 nM final concentration anti-6His Europium chelate was added to all wells and a further dark incubation of at least 30 minutes was performed. Plates were then read on the Envision plate reader, (⋅ex=317 nm, donor ⋅em=615 nm; acceptor ⋅em=665 nm; Dichroic LANCE dual). Time resolved fluorescent intensity measurements were made at both emission wavelengths and the ratio of acceptor/donor was calculated and used for data analysis. All data was normalized to the mean of 16 high (inhibitor control—Example 11 of WO 2011/054846A1) and 16 low (DMSO) control wells on each plate. A four parameter curve fit of the following form was then applied: y=a+((b−a)/(1+(10^x/10^c)^d) Where ‘a’ is the minimum, […], ‘c’ is the pIC50 and […].
row,SMILES,IC50 [µM]
1,"Cc1cc(-c2nc3cc(CN[C@@H](CC(C)C)C(=O)O)ccc3n2CCCO)c[nH]c1=O [Example 21, (S)-2-(((1-(3-hydroxypropyl)-2-(5-methyl-6-oxo-1,6-dihydropyridin-3-yl)-1H-benzo[d]imidazol-5-yl)methyl)amino)-4-methylpentanoic acid, hydrochloride]",> 50.1
2,"Cc1cc(-c2nc3cc(CN[C@@H](CC(C)C)C(=O)O)ccc3n2C)c[nH]c1=O [Example 24, (S)-4-methyl-2-(((1-methyl-2-(5-methyl-6-oxo-1,6-dihydropyridin-3-yl)-1H-benzo[d]imidazol-5-yl)methyl)amino)pentanoic acid, hydrochloride]",> 50.1
3,"Cc1cc(-c2nc3cc(CN[C@@H](CC(C)C)C(=O)O)ccc3n2CC2CCN(C)CC2)c[nH]c1=O [Example 48, (S)-4-methyl-2-(((2-(5-methyl-6-oxo-1,6-dihydropyridin-3-yl)-1-((1-methylpiperidin-4-yl)methyl)-1H-benzo[d]imidazol-5-yl)methyl)amino)pentanoic acid, bis hydrochloride]",> 50.1
4,"Cc1cc(-c2nc3cc(CN[C@@H](CC(C)C)C(=O)O)ccc3n2C2CCN(C)CC2)c[nH]c1=O [Example 60, (S)-4-methyl-2-(((2-(5-methyl-6-oxo-1,6-dihydropyridin-3-yl)-1-(1-methylpiperidin-4-yl)-1H-benzo[d]imidazol-5-yl)methyl)amino)pentanoic acid, bis-hydrochloride]",> 50.1
